Molecules are shown by their SMILES. pIC50: −log10 of the molar value.

One may read the pIC50 as the negative decadic logarithm of the IC50, by convention in mol/L. The low end stands for a large IC50, the high end for a small IC50.

This test deals with T1, neutrophil elastase (Homo sapiens, UniProt P08246).
T1 sequence (P08246 30-247 limits assumed): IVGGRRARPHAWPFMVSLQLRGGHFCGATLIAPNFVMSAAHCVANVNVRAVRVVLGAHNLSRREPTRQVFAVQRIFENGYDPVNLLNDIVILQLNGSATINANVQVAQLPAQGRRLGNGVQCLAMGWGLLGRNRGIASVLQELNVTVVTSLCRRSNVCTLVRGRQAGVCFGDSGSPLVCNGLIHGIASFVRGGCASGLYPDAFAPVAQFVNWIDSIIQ
Briefly: Human Neutrophil Elastase Assay. It counts as biochemical. Further details: purchased Calbiochem 324681. As to conditions: substrate MeOSuc-Ala-Ala-Pro-Val-AMC, pH 7.5, room temperature. On the procedure: Human Neutrophil Elastase Assay
Materials: Human neutrophil elastase was purchased from Calbiochem (Cat.No.: 324681) and the elastase substrate MeOSuc-Ala-Ala-Pro-Val-AMC from Bachem (Cat.No.: I-1270). All other materials were of the highest grade commercially available.
The following buffers were used: Compound buffer: 100 mM Tris, 500 mM NaCl, adjusted to pH 7.5; Assay buffer: 100 mM Tris, 500 mM NaCl, adjusted to pH 7.5, containing 0.01% BSA.
Assay conditions: Test compounds were prediluted in DMSO and subsequently in compound buffer (5% DMSO final). 5 μL of these compound dilutions were mixed with 10 μl Neutrophil elastase (9 ng/ml in assay buffer) in a black 384 well OptiPlate (Perkin Elmer, Cat No.: 6007270) and incubated for 15 min at room temperature. Subsequently 10 μL substrate solution in assay buffer were added (250 nM final concentration) and the plates were incubated for 60 min at room temperature. After inactivation of the enzyme, fluorescence intensities were measured at 380 nm excitation and 460 nm emission wavelengths.
Each plate contains wells with a high value control (DMSO+enzyme+substrate) and wells with a low value control (DMSO+inactivated enzyme+substrate). IC50 values were estimated using a sigmoidal concentration response curve with variable slope. Means of low values were taken as 0%, means of high values as 100%.
In turn, `N#Cc1ccc(C2C3=C(CCCC3=O)N(c3cccc(C(F)(F)F)c3)C(=O)N2CC(=O)O)cc1` (stereo not shown) [Example 32, 2-(4-(4-Cyanophenyl)-2,5-dioxo-1-(3-(trifluoromethyl)phenyl)-1,2,5,6,7,8-hexahydroquinazolin-3(4H)-yl)acetic acid] had a pIC50 of 7.92. The same measure for `N#Cc1ccc([C@@H]2C3=C(CCCC3=O)N(c3cccc(C(F)(F)F)c3)C(=O)N2CC(=O)O)cc1` [Example 32A, (R)-2-(4-(4-Cyanophenyl)-2,5-dioxo-1-(3-(trifluoromethyl)phenyl)-1,2,5,6,7,8-hexahydroquinazolin-3(4H)-yl)acetic acid]: 8.34; for `N#Cc1ccc([C@H]2C3=C(CCCC3=O)N(c3cccc(C(F)(F)F)c3)C(=O)N2CC(=O)O)cc1` [Example 32B, (S)-2-(4-(4-Cyanophenyl)-2,5-dioxo-1-(3-(trifluoromethyl)phenyl)-1,2,5,6,7,8-hexahydroquinazolin-3(4H)-yl)acetic acid]: 5.85; for `N#Cc1ccc(C2C3=C(CCCC3=O)N(c3cccc(C(F)(F)F)c3)C(=O)N2CC(N)=O)cc1` (stereo not shown) [Example 33, 2-(4-(4-Cyanophenyl)-2,5-dioxo-1-(3-(trifluoromethyl)phenyl)-1,2,5,6,7,8-hexahydroquinazolin-3(4H)-yl)acetamide]: 8.02. For `CN(C)C(=O)CN1C(=O)N(c2cccc(C(F)(F)F)c2)C2=C(C(=O)CCC2)C1c1ccc(C#N)cc1` (stereo not shown) [Example 34, 2-(4-(4-Cyanophenyl)-2,5-dioxo-1-(3-(trifluoromethyl)phenyl)-1,2,5,6,7,8-hexahydroquinazolin-3(4H)-yl)-N,N-dimethylacetamide], the pIC50 is 8.51.

Regarding `Cn1ncc2c1CN(C(=O)CN1C(=O)N(c3cccc(C(F)(F)F)c3)C3=C(C(=O)CCC3)C1c1ccc(C#N)cc1)C2` (stereo not shown) [Example 35, 4-(3-(2-(1-Methylpyrrolo[3,4-c]pyrazol-5(1H,4H,6H)-yl)-2-oxoethyl)-2,5-dioxo-1-(3-(trifluoromethyl)phenyl)-1,2,3,4,5,6,7,8-octahydroquinazolin-4-yl)benzonitrile], the pIC50 is 8.77. Consider `CNC(=O)CN1C(=O)N(c2cccc(C(F)(F)F)c2)C2=C(C(=O)CCC2)C1c1ccc(C#N)cc1` (stereo not shown) [Example 36.1], for which the pIC50 was 8.19. The same measure for `N#Cc1ccc(C2C3=C(CCCC3=O)N(c3cccc(C(F)(F)F)c3)C(=O)N2CC(=O)NC2CC2)cc1` (stereo not shown) [Example 36.2]: 7.88. The figure for `N#Cc1ccc(C2C3=C(CCCC3=O)N(c3cccc(C(F)(F)F)c3)C(=O)N2CC(=O)NCC2CC2)cc1` (stereo not shown) [Example 36.3] is 7.68; for `CN(C(=O)CN1C(=O)N(c2cccc(C(F)(F)F)c2)C2=C(C(=O)CCC2)C1c1ccc(C#N)cc1)C1CC1` (stereo not shown) [Example 36.4] it is 8.62.

`COCCNC(=O)CN1C(=O)N(c2cccc(C(F)(F)F)c2)C2=C(C(=O)CCC2)C1c1ccc(C#N)cc1` (stereo not shown) [Example 36.5] showed a pIC50 of 7.87. For the compound `N#Cc1ccc(C2C3=C(CCCC3=O)N(c3cccc(C(F)(F)F)c3)C(=O)N2CC(=O)N2CC3CC3C2)cc1` (stereo not shown) [Example 36.6], the negative logarithm of the IC50 (pIC50) is 8.92. The figure for `CN(CC1CC1)C(=O)CN1C(=O)N(c2cccc(C(F)(F)F)c2)C2=C(C(=O)CCC2)C1c1ccc(C#N)cc1` (stereo not shown) [Example 36.7] is 8.47; for `N#Cc1ccc(C2C3=C(CCCC3=O)N(c3cccc(C(F)(F)F)c3)C(=O)N2CC(=O)N2CCC(O)C2)cc1` (stereo not shown) [Example 36.8] it is 8.68; for `N#Cc1ccc(C2C3=C(CCCC3=O)N(c3cccc(C(F)(F)F)c3)C(=O)N2CC(=O)NC2CCOC2)cc1` (stereo not shown) [Example 36.9] it is 7.97. In turn, `CN(C)CCNC(=O)CN1C(=O)N(c2cccc(C(F)(F)F)c2)C2=C(C(=O)CCC2)C1c1ccc(C#N)cc1` (stereo not shown) [Example 36.10] gave a pIC50 of 7.70. The compound `N#Cc1ccc(C2C3=C(CCCC3=O)N(c3cccc(C(F)(F)F)c3)C(=O)N2CC(=O)N2CCC(F)C2)cc1` (stereo not shown) [Example 36.11] gave a negative-log IC50 (pIC50) of 8.29. The figure for `COCCN(C)C(=O)CN1C(=O)N(c2cccc(C(F)(F)F)c2)C2=C(C(=O)CCC2)C1c1ccc(C#N)cc1` (stereo not shown) [Example 36.12] is 8.18; for `COCCCNC(=O)CN1C(=O)N(c2cccc(C(F)(F)F)c2)C2=C(C(=O)CCC2)C1c1ccc(C#N)cc1` (stereo not shown) [Example 36.13] it is 7.69; for `CC(C)(O)CNC(=O)CN1C(=O)N(c2cccc(C(F)(F)F)c2)C2=C(C(=O)CCC2)C1c1ccc(C#N)cc1` (stereo not shown) [Example 36.14] it is 8.09. The figure for `N#Cc1ccc(C2C3=C(CCCC3=O)N(c3cccc(C(F)(F)F)c3)C(=O)N2CC(=O)NCc2ccco2)cc1` (stereo not shown) [Example 36.15] is 7.76; for `N#Cc1ccc(C2C3=C(CCCC3=O)N(c3cccc(C(F)(F)F)c3)C(=O)N2CC(=O)N2CCC3(CC3)C2)cc1` (stereo not shown) [Example 36.16] it is 8.44. The figure for `N#Cc1ccc(C2C3=C(CCCC3=O)N(c3cccc(C(F)(F)F)c3)C(=O)N2CC(=O)N2CC3(CCC3)C2)cc1` (stereo not shown) [Example 36.17] is 8.26; for `CC1CN(C(=O)CN2C(=O)N(c3cccc(C(F)(F)F)c3)C3=C(C(=O)CCC3)C2c2ccc(C#N)cc2)CC1C` (stereo not shown) [Example 36.18] it is 8.40. On to `CC1CCN(C(=O)CN2C(=O)N(c3cccc(C(F)(F)F)c3)C3=C(C(=O)CCC3)C2c2ccc(C#N)cc2)CC1` (stereo not shown) [Example 36.19], for which the pIC50 is 7.99. The compound `N#Cc1ccc(C2C3=C(CCCC3=O)N(c3cccc(C(F)(F)F)c3)C(=O)N2CC(=O)N[C@H]2CCNC2=O)cc1` (stereo partly shown) [Example 36.20] had a negative logarithm of the IC50 (pIC50) of 7.94. Take `N#Cc1ccc(C2C3=C(CCCC3=O)N(c3cccc(C(F)(F)F)c3)C(=O)N2CC(=O)N2CCNC(=O)C2)cc1` (stereo not shown) [Example 36.21]: the negative logarithm of the IC50 (pIC50) was 8.68.

The compound `N#Cc1ccc(C2C3=C(CCCC3=O)N(c3cccc(C(F)(F)F)c3)C(=O)N2CC(=O)NCC2CCOC2)cc1` (stereo not shown) [Example 36.22] showed a pIC50 of 8.17. With `COC1CCN(C(=O)CN2C(=O)N(c3cccc(C(F)(F)F)c3)C3=C(C(=O)CCC3)C2c2ccc(C#N)cc2)C1` (stereo not shown) [Example 36.23], the pIC50 was 8.68. The figure for `N#Cc1ccc(C2C3=C(CCCC3=O)N(c3cccc(C(F)(F)F)c3)C(=O)N2CC(=O)NCC2CCCO2)cc1` (stereo not shown) [Example 36.24] is 8.00; for `CC1(O)CCN(C(=O)CN2C(=O)N(c3cccc(C(F)(F)F)c3)C3=C(C(=O)CCC3)C2c2ccc(C#N)cc2)C1` (stereo not shown) [Example 36.25] it is 8.77; for `CC(=O)NCCNC(=O)CN1C(=O)N(c2cccc(C(F)(F)F)c2)C2=C(C(=O)CCC2)C1c1ccc(C#N)cc1` (stereo not shown) [Example 36.26] it is 7.75. The figure for `N#Cc1ccc(C2C3=C(CCCC3=O)N(c3cccc(C(F)(F)F)c3)C(=O)N2CC(=O)N2CCSCC2)cc1` (stereo not shown) [Example 36.28] is 8.36. The figure for `C[S+]([O-])CCNC(=O)CN1C(=O)N(c2cccc(C(F)(F)F)c2)C2=C(C(=O)CCC2)C1c1ccc(C#N)cc1` (stereo not shown) [Example 36.29] is 8.02. The compound `N#Cc1ccc(C2C3=C(CCCC3=O)N(c3cccc(C(F)(F)F)c3)C(=O)N2CC(=O)NCCn2ccnc2)cc1` (stereo not shown) [Example 36.30] gave a negative logarithm of the IC50 (pIC50) of 8.23. Regarding `Cn1cc(CNC(=O)CN2C(=O)N(c3cccc(C(F)(F)F)c3)C3=C(C(=O)CCC3)C2c2ccc(C#N)cc2)cn1` (stereo not shown) [Example 36.31], the pIC50 was 8.11.

On to `N#Cc1ccc(C2C3=C(CCCC3=O)N(c3cccc(C(F)(F)F)c3)C(=O)N2CC(=O)NCCn2cccn2)cc1` (stereo not shown) [Example 36.32], for which the pIC50 is 7.85. The same measure for `Cn1ccc(CNC(=O)CN2C(=O)N(c3cccc(C(F)(F)F)c3)C3=C(C(=O)CCC3)C2c2ccc(C#N)cc2)n1` (stereo not shown) [Example 36.33]: 7.77; for `N#Cc1ccc(C2C3=C(CCCC3=O)N(c3cccc(C(F)(F)F)c3)C(=O)N2CC(=O)N2CCC3(CC2)CC3)cc1` (stereo not shown) [Example 36.34]: 7.97; for `Cc1nnc(CNC(=O)CN2C(=O)N(c3cccc(C(F)(F)F)c3)C3=C(C(=O)CCC3)C2c2ccc(C#N)cc2)o1` (stereo not shown) [Example 36.35]: 8.15. The figure for `N#Cc1ccc(C2C3=C(CCCC3=O)N(c3cccc(C(F)(F)F)c3)C(=O)N2CC(=O)NCC2CCC(=O)N2)cc1` (stereo not shown) [Example 36.36] is 8.10; for `CN1CCN(C(=O)CN2C(=O)N(c3cccc(C(F)(F)F)c3)C3=C(C(=O)CCC3)C2c2ccc(C#N)cc2)CC1=O` (stereo not shown) [Example 36.37] it is 8.38. The same measure for `CN1CCC(NC(=O)CN2C(=O)N(c3cccc(C(F)(F)F)c3)C3=C(C(=O)CCC3)C2c2ccc(C#N)cc2)CC1` (stereo not shown) [Example 36.38]: 7.77. `CN1CCCC1CNC(=O)CN1C(=O)N(c2cccc(C(F)(F)F)c2)C2=C(C(=O)CCC2)C1c1ccc(C#N)cc1` (stereo not shown) [Example 36.39] showed a negative logarithm of the IC50 (pIC50) of 7.58.

In the case of `COC1CCN(C(=O)CN2C(=O)N(c3cccc(C(F)(F)F)c3)C3=C(C(=O)CCC3)C2c2ccc(C#N)cc2)CC1` (stereo not shown) [Example 36.40], the pIC50 is 8.51. The same measure for `CN(CC1(C)COC1)C(=O)CN1C(=O)N(c2cccc(C(F)(F)F)c2)C2=C(C(=O)CCC2)C1c1ccc(C#N)cc1` (stereo not shown) [Example 36.41]: 8.13.

For the origin of these results see patent US9115093B2, “Substituted bicyclic dihydropyrimidinones and their use as inhibitors of neutrophil elastase activity” (Boehringer Ingelheim International GmbH, priority 2013, dated 2015).
